ChEMBL document CHEMBL1201862, “PubChem BioAssay data set” (2004)
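How tested: cells in 96-well plates exposed to compound for 48 hours at five concentrations. At the GI50, growth is halved.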 Active and inactive are the calls of the source. Cut-off read from the data, not from the text of the source: active = GI50 up to about 1.1 µM and inactive = higher.

Legend:
Experiment in all cases: NCI anticancer screen, dose series, 48 h
786-0 = tested on: 786-0
A498 = tested on: A498
A549 = tested on: A549
BT-549 = tested on: BT-549
CAKI-1 = tested on: CAKI-1
CCRF-CEM = tested on: CCRF-CEM
COLO 205 = tested on: COLO 205
DU-145 = tested on: DU-145
EKVX = tested on: EKVX
HCC 2998 = tested on: HCC 2998
HCT-116 = tested on: HCT-116
HCT-15 = tested on: HCT-15
HL-60 = tested on: HL-60
HOP-62 = tested on: HOP-62
HOP-92 = tested on: HOP-92
HT-29 = tested on: HT-29
Hs-578T = tested on: Hs-578T
K562 = tested on: K562
KM12 = tested on: KM12
M14 = tested on: M14
MCF7 = tested on: MCF7
MDA-MB-231 = tested on: MDA-MB-231
MDA-MB-435 = tested on: MDA-MB-435
MOLT-4 = tested on: MOLT-4
NCI-H23 = tested on: NCI-H23
NCI-H460 = tested on: NCI-H460
NCI-H522 = tested on: NCI-H522
NCI/ADR-RES = tested on: NCI/ADR-RES
OVCAR-3 = tested on: OVCAR-3
OVCAR-4 = tested on: OVCAR-4
OVCAR-5 = tested on: OVCAR-5
OVCAR-8 = tested on: OVCAR-8
PC-3 = tested on: PC-3
RPMI-8226 = tested on: RPMI-8226
RXF 393 = tested on: RXF 393
SF-268 = tested on: SF-268
SF-295 = tested on: SF-295
SF-539 = tested on: SF-539
SK-MEL-28 = tested on: SK-MEL-28
SK-MEL-2 = tested on: SK-MEL-2
SK-MEL-5 = tested on: SK-MEL-5
SK-OV-3 = tested on: SK-OV-3
SN12C = tested on: SN12C
SNB-19 = tested on: SNB-19
SNB-75 = tested on: SNB-75
SR = tested on: SR
SW-620 = tested on: SW-620
T47D = tested on: T47D
TK-10 = tested on: TK-10
U-251 = tested on: U-251
UACC-257 = tested on: UACC-257
UACC-62 = tested on: UACC-62
UO-31 = tested on: UO-31

Cc1ccc(C2NC(=N)NC3=C2CCOc2c3ccc3ccccc23)cc1 (stereo not drawn)
GI50 (786-0): 2.61 µM (inactive) | GI50 (A498): 17.3 µM (inactive) | GI50 (A549): 14.6 µM (inactive) | GI50 (BT-549): 6.04 µM (inactive) | GI50 (CAKI-1): 3.66 µM (inactive) | GI50 (CCRF-CEM): 0.468 µM (active) | GI50 (COLO 205): 20.8 µM (inactive) | GI50 (DU-145): 7.35 µM (inactive) | GI50 (EKVX): 7.8 µM (inactive) | GI50 (HCC 2998): 7.16 µM (inactive) | GI50 (HCT-116): 1.93 µM (inactive) | GI50 (HCT-15): 4.3 µM | GI50 (HL-60): 2.96 µM (inactive) | GI50 (HOP-62): 4.94 µM (inactive) | GI50 (HOP-92): 5.66 µM (inactive) | GI50 (HT-29): 1.81 µM (inactive) | GI50 (Hs-578T): 20.5 µM (inactive) | GI50 (K562): 2.19 µM (inactive) | GI50 (KM12): 4.21 µM (inactive) | GI50 (M14): 1.76 µM (inactive) | GI50 (MCF7): 4.91 µM (inactive) | GI50 (MDA-MB-231): 3.75 µM (inactive) | GI50 (MDA-MB-435): 2.27 µM (inactive) | GI50 (MOLT-4): 7.26 µM (inactive) | GI50 (NCI-H23): 34.9 µM (inactive) | GI50 (NCI-H460): 14.2 µM (inactive) | GI50 (NCI-H522): 33.5 µM (inactive) | GI50 (NCI/ADR-RES): 15.1 µM (inactive) | GI50 (OVCAR-3): 4.92 µM (inactive) | GI50 (OVCAR-4): 9.38 µM (inactive) | GI50 (OVCAR-5): 41.6 µM (inactive) | GI50 (OVCAR-8): 33.6 µM (inactive) | GI50 (PC-3): 21.9 µM (inactive) | GI50 (RPMI-8226): 4.42 µM (inactive) | GI50 (RXF 393): 31.8 µM (inactive) | GI50 (SF-268): 24.7 µM (inactive) | GI50 (SF-295): 16 µM (inactive) | GI50 (SF-539): 1.57 µM (inactive) | GI50 (SK-MEL-28): 5.55 µM (inactive) | GI50 (SK-MEL-2): 36.7 µM (inactive) | GI50 (SK-MEL-5): 12.9 µM (inactive) | GI50 (SK-OV-3): 42 µM (inactive) | GI50 (SN12C): 6.38 µM (inactive) | GI50 (SNB-19): 29.6 µM (inactive) | GI50 (SNB-75): 5.21 µM (inactive) | GI50 (SR): 0.466 µM (active) | GI50 (SW-620): 6.84 µM (inactive) | GI50 (T47D): 25.2 µM (inactive) | GI50 (TK-10): 29.4 µM (inactive) | GI50 (U-251): 15.9 µM (inactive) | GI50 (UACC-257): 31.3 µM (inactive) | GI50 (UACC-62): 2.58 µM (inactive) | GI50 (UO-31): 42.9 µM (inactive)
